Results on two molecules are retold here after patent publication US9340545B2, “Quinazolin-4 (3H)—one derivatives used as P13 kinase inhibitors” (Respivert Limited, priority 2011, dated 2016).

This assay concerns cigarette smoke-induced cell accumulation in murine BALF. The assay is described as follows: Cigarette smoke model. Type of assay: in vivo, A/J mice.

Regarding `C[C@@H]1C[C@H]2[C@@H]3CCC4=CC(=O)C=C[C@]4(C)[C@@]3(F)[C@@H](O)C[C@]2(C)[C@@]1(O)C(=O)CO` [dexamethasone], the “Activity in the cigarette smoke model” value (0.3-10 mg/kg, p.o.) was “inactive”.

Take `CCC(=O)O[C@]1(C(=O)SCF)[C@H](C)C[C@H]2[C@@H]3C[C@H](F)C4=CC(=O)C=C[C@]4(C)[C@@]3(F)[C@@H](O)C[C@@]21C` [fluticasone propionate]: the “Anti-inflammatory effect as monotherapy in the cigarette smoke model” value (monotherapy, at the dose used for co-administration (FP dosed at 50 μg/mL)) is “lacks any significant effect”.
